Measurements as given in patent US10815230B2, “Casein kinase 1 delta inhibitor” (ELECTROPHORETICS LIMITED, priority 2015, dated 2020).
“And” between values parts separate entries of the source, which are not always exact repeats. Equal entries are not always repeated. Where two headings read alike, the source gives them in different places.

Tests used:
BMPR1A = BMPR1A (Homo sapiens, UniProt P36894); assay: KINOMEscan binding assay; details: read-out: % Ctrl @ 10000 nM
PFTAIRE2 = PFTAIRE2 (Homo sapiens, UniProt Q96Q40); assay: KINOMEscan binding assay; details: read-out: % Ctrl @ 10000 nM
ACVR2B = ACVR2B (Homo sapiens, UniProt Q13705); assay: KINOMEscan binding assay; details: read-out: % Ctrl @ 10000 nM
[1] = Determination of compound in plasma and brain by LC-MS/MS; type: in vivo; details: TMHT mice of experiment 5.5, 30 mg/kg orally for 8 weeks; for concentration in cortex: cortex at sacrifice; for concentration in plasma: plasma at sacrifice; for concentration in rest of brain: rest of brain at sacrifice; for concentration at 8 weeks: TMHT, mouse, oral, 30 mg/kg
Description: Plasma and brain samples derived from the experiments in 5.5 were pooled from single time point and were analysed for the presence and concentration of Comparative Compound 324 and Compound A by LC-MS/MS after protein precipitation over the calibration range of 0.5-10,000 ng/mL. Chrysin (Sigma®), control mouse plasma and brain (obtained from a commercial supplier) were used as internal standards.
All instrument control, data collection, peak area integration and storage were performed using Thermo Finnigan TSQ Quantum Ultra Mass Spectrometer in conjunction with LCQuan software (v.2.5.6). The mass spectrometer response (peak area ratio of analyte to internal standard) of each calibration standard was calculated by Watson LIMS (v. 7.2) and plotted against the nominal concentration. A weighted least square quadratic regression analysis was used to calculate an equation of the calibration line using one of the standard fits in Watson LIMS. Concentration of Comparative Compound 324 and Compound A in the plasma and brain samples were back calculated from the calibration lines to 3 significant figures. All results reported are from samples that passed the following criteria:
[formula] • At least 7 calibration standards within ±20% RE of their target concentrations. • At least 66% of QC samples within ±20% RE of their respective target values. Within at least one acceptable at each level when n=3 and two when n=6.
The analytical method was as summarised below in Table 14:
In total 32 samples were analysed. Quality control (QC) samples at concentration of 10, 100 and 1000 ng/mL were freshly prepared on the day of the analysis.

NEK6 = NEK6 (Homo sapiens, UniProt Q9HC98); assay: KINOMEscan binding assay; details: read-out: % Ctrl @ 10000 nM
PIK3C2G = PIK3C2G (Homo sapiens, UniProt O75747); assay: KINOMEscan binding assay; details: read-out: % Ctrl @ 10000 nM
FER = FER (Homo sapiens, UniProt P16591); assay: KINOMEscan binding assay; details: read-out: % Ctrl @ 10000 nM
PIK3CA = PIK3CA (Homo sapiens, UniProt P42336); assay: KINOMEscan binding assay; details: read-out: % Ctrl @ 10000 nM
PRKX = PRKX (Homo sapiens, UniProt P51817); assay: KINOMEscan binding assay; details: read-out: % Ctrl @ 10000 nM
PRKD1 = PRKD1 (Homo sapiens, UniProt Q15139); assay: KINOMEscan binding assay; details: read-out: % Ctrl @ 10000 nM
TLK1 = TLK1 (Homo sapiens, UniProt Q9UKI8); assay: KINOMEscan binding assay; details: read-out: % Ctrl @ 10000 nM
PFTK1 = PFTK1 (Homo sapiens, UniProt O94921); assay: KINOMEscan binding assay; details: read-out: % Ctrl @ 10000 nM
SLK = SLK (Homo sapiens, UniProt Q9H2G2); assay: KINOMEscan binding assay; details: read-out: % Ctrl @ 10000 nM
MLCK = MLCK (Homo sapiens, UniProt Q32MK0); assay: KINOMEscan binding assay; details: read-out: % Ctrl @ 10000 nM
TRPM6 = TRPM6 (Homo sapiens, UniProt Q9BX84); assay: KINOMEscan binding assay; details: read-out: % Ctrl @ 10000 nM
MAP4K2 = target: T1, MAP4K2 (Homo sapiens, UniProt Q12851); assay: KINOMEscan binding assay; details: read-out: % Ctrl @ 10000 nM
T1 construct: T7 phage fusion (most assays) or DNA label after HEK293 expression; purchased DiscoveRx (KINOMEscan, LeadHunter Discovery services); host or cells: T7 phage in E. coli (BL21-derived) or HEK293

AURKC = AURKC (Homo sapiens, UniProt Q9UQB9); assay: KINOMEscan binding assay; details: read-out: % Ctrl @ 10000 nM
EPHA2 = EPHA2 (Homo sapiens, UniProt P29317); assay: KINOMEscan binding assay; details: read-out: % Ctrl @ 10000 nM
EGFR (L858R, T790M) = EGFR (L858R, T790M) (Homo sapiens, UniProt P00533, L858R/T790M); assay: KINOMEscan binding assay; details: read-out: % Ctrl @ 10000 nM
RAF1 = RAF1 (Homo sapiens, UniProt P04049); assay: KINOMEscan binding assay; details: read-out: % Ctrl @ 10000 nM
PKMYT1 = PKMYT1 (Homo sapiens, UniProt Q99640); assay: KINOMEscan binding assay; details: read-out: % Ctrl @ 10000 nM
MRCKB = MRCKB (Homo sapiens, UniProt Q9Y5S2); assay: KINOMEscan binding assay; details: read-out: % Ctrl @ 10000 nM
PIM2 = PIM2 (Homo sapiens, UniProt Q9P1W9); assay: KINOMEscan binding assay; details: read-out: % Ctrl @ 10000 nM
EGFR (S752-I759del) = EGFR (S752-I759del) (Homo sapiens, UniProt P00533, DEL752-759); assay: KINOMEscan binding assay; details: read-out: % Ctrl @ 10000 nM
KIT (D816H) = KIT (D816H) (Homo sapiens, UniProt P10721, D816H); assay: KINOMEscan binding assay; details: read-out: % Ctrl @ 10000 nM
RIPK1 = RIPK1 (Homo sapiens, UniProt Q13546); assay: KINOMEscan binding assay; details: read-out: % Ctrl @ 10000 nM
RIOK1 = RIOK1 (Homo sapiens, UniProt Q9BRS2); assay: KINOMEscan binding assay; details: read-out: % Ctrl @ 10000 nM
KIT (V559D, T670I) = KIT (V559D, T670I) (Homo sapiens, UniProt P10721, T670I/V559D); assay: KINOMEscan binding assay; details: read-out: % Ctrl @ 10000 nM
ANKK1 = ANKK1 (Homo sapiens, UniProt Q8NFD2); assay: KINOMEscan binding assay; details: read-out: % Ctrl @ 10000 nM
YANK1 = target: T2, YANK1 (Homo sapiens, UniProt Q8WU08); assay: KINOMEscan binding assay; details: read-out: % Ctrl @ 10000 nM
T2 construct: purchased DiscoveRx (KINOMEscan, LeadHunter Discovery services)

ROCK1 = ROCK1 (Homo sapiens, UniProt Q13464); assay: KINOMEscan binding assay; details: read-out: % Ctrl @ 10000 nM
[2] = hippocampus at sacrifice, LC-MS/MS, one value per mouse

T2 sequence (Q8WU08 whole entry): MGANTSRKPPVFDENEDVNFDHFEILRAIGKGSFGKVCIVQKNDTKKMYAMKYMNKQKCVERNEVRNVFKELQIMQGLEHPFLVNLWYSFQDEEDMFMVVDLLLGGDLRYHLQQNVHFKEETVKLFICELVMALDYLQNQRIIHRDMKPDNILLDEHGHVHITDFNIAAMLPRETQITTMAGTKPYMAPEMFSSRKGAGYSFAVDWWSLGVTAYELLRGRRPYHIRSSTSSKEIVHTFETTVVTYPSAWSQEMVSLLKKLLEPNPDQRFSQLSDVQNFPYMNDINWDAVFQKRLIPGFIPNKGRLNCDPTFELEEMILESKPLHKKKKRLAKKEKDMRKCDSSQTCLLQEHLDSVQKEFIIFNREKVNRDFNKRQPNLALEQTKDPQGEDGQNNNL
RAF1, sequence (P04049 whole entry): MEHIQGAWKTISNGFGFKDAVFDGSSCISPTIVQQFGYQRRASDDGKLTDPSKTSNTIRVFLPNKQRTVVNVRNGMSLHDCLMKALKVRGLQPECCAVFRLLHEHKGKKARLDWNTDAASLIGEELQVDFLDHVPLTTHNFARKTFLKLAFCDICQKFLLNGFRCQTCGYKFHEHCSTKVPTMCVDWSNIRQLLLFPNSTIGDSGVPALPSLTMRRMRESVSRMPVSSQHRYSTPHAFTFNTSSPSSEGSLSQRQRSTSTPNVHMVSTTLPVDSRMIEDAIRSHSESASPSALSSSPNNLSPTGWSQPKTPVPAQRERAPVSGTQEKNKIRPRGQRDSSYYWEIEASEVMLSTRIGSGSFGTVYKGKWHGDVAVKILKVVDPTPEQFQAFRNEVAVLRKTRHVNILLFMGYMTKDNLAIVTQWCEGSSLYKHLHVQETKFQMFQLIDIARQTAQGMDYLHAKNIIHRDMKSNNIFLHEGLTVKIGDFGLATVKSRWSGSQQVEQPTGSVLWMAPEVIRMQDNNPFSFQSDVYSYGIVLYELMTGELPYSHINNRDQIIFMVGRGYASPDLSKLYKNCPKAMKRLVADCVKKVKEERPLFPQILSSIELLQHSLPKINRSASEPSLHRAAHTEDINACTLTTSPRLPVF
NEK6, sequence (Q9HC98 whole entry): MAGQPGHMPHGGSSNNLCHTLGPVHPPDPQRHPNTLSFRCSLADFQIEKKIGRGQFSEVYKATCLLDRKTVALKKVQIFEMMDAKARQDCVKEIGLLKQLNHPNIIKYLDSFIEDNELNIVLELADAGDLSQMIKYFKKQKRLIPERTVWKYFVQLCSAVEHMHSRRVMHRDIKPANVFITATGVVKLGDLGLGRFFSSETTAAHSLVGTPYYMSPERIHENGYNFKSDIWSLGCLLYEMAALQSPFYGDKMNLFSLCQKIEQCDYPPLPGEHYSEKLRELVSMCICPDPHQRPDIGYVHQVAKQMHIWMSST
RIPK1, sequence (Q13546 whole entry): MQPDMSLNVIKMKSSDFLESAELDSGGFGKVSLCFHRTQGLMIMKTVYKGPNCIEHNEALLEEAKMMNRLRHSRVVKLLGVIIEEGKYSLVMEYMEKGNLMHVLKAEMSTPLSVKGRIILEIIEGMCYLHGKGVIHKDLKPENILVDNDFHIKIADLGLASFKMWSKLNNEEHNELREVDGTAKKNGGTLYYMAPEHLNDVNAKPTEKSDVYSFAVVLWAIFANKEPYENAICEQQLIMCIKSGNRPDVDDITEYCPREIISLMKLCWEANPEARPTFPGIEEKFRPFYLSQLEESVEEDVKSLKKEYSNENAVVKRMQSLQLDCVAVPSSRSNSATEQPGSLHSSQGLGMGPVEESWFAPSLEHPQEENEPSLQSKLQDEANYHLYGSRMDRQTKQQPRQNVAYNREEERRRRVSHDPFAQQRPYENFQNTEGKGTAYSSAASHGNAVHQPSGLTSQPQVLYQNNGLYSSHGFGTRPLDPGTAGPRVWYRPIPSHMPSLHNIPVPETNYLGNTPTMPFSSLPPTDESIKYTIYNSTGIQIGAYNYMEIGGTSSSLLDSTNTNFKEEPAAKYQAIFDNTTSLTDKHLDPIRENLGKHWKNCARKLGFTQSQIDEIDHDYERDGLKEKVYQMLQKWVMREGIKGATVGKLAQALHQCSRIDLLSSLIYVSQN
KIT (D816H), sequence (P10721 26-976 D816H): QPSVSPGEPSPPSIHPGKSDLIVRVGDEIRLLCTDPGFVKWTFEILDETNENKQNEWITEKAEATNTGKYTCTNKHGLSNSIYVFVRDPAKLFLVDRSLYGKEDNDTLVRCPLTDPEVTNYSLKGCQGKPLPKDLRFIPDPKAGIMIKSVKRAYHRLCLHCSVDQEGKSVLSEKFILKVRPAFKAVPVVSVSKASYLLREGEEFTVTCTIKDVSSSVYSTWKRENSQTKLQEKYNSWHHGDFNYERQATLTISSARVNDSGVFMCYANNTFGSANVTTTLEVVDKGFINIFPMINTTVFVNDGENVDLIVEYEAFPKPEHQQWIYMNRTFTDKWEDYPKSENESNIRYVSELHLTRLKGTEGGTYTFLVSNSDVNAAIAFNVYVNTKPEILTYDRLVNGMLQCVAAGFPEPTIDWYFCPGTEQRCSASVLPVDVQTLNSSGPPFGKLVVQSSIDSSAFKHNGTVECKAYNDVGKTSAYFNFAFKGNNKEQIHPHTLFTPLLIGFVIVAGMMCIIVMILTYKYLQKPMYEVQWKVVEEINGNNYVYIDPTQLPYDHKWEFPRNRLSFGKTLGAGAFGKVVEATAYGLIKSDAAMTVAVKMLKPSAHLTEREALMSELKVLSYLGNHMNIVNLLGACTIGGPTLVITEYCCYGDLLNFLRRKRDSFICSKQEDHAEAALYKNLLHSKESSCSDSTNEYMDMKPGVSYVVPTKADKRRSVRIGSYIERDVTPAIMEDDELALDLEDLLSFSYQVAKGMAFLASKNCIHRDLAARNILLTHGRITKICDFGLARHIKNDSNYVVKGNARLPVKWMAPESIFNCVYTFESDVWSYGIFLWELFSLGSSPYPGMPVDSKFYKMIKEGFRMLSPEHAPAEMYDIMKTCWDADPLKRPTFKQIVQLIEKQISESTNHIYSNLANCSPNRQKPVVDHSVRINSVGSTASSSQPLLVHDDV
PKMYT1, sequence (Q99640 whole entry): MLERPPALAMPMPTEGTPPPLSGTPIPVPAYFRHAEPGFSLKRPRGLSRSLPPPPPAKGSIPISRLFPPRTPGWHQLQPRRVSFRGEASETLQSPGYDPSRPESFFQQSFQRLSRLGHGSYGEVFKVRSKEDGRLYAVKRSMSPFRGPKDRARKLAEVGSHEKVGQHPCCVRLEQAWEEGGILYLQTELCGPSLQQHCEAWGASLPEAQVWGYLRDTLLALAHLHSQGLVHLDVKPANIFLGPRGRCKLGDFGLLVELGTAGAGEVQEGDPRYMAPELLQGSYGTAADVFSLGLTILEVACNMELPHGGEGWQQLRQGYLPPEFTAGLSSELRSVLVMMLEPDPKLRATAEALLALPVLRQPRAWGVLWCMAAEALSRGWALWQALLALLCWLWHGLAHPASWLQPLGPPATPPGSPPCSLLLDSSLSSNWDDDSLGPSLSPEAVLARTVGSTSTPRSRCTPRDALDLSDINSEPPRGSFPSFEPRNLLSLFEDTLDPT
EGFR (L858R, T790M), sequence (P00533 25-1210 T790M/L858R): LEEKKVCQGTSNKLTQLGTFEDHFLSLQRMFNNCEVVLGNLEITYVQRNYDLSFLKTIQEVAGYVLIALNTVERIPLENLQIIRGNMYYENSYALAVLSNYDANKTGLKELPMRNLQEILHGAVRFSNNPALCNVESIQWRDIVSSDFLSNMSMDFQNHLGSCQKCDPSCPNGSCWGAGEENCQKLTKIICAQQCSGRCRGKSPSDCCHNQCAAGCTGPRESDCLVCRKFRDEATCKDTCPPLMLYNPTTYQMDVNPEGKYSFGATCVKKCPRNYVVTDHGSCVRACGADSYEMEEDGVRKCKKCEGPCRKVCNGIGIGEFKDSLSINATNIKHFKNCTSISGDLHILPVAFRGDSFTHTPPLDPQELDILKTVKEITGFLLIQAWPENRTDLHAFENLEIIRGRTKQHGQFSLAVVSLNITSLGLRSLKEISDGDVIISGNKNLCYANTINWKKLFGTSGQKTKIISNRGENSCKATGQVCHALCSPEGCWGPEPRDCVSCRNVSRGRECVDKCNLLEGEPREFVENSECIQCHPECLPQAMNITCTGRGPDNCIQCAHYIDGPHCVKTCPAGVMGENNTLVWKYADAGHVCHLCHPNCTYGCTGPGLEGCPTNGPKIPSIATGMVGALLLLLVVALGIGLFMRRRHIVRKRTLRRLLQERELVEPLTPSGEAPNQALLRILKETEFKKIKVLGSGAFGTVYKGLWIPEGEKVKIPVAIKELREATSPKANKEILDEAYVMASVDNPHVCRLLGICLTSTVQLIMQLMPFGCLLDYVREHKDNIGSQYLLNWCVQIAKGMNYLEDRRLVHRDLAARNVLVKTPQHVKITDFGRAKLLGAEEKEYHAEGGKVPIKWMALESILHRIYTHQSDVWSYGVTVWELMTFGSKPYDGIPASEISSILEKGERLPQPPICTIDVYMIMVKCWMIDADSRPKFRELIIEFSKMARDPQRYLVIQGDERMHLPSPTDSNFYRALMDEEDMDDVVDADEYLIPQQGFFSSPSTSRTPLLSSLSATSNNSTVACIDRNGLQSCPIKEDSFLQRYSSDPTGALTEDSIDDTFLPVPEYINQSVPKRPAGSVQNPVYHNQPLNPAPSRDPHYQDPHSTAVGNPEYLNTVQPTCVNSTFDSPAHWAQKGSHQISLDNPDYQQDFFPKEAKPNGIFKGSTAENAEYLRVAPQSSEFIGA
PIM2, sequence (Q9P1W9 whole entry): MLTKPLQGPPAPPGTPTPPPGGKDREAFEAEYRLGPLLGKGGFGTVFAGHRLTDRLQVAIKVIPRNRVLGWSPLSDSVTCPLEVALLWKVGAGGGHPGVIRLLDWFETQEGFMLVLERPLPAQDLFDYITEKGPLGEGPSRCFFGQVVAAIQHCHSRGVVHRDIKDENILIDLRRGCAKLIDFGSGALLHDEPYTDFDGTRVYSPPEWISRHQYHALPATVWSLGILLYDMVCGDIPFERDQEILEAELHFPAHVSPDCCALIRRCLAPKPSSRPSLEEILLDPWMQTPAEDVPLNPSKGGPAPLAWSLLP
KIT (V559D, T670I), sequence (P10721 26-976 V559D/T670I): as the sequence (P10721 26-976 D816H) above, with V534D, T645I, H791D counted along it

SMILES: Nc1ncc(-c2nc3ccccc3o2)c(-c2ccncc2)n1 [Comparative Compound 324, 5-(1,3-benzoxazol-2-yl)-4-(pyridine-4-yl)pyrimidin-2-amine]
- remaining binding at 10 µM (BMPR1A): 100%
- remaining binding at 10 µM (PFTAIRE2): 100%
- remaining binding at 10 µM (ACVR2B): 100%
- concentration in cortex ([1]; LC-MS/MS, one value per mouse): 14.3 ng/mL and 108 ng/mL and 1.98 ng/mL and 10.5 ng/mL and 10.7 ng/mL and 0.536 ng/mL and 15.3 ng/mL and 6.41 ng/mL
- concentration in hippocampus [1, 2]: 11.9 ng/mL and 87.0 ng/mL and BLQ (2×) and 12.6 ng/mL and 11.5 ng/mL and 15.1 ng/mL and 6.12 ng/mL
- concentration in plasma ([1]; LC-MS/MS, one value per mouse): 295 ng/mL and 1450 ng/mL and 34.2 ng/mL and 230 ng/mL and 225 ng/mL and 10.5 ng/mL and 287 ng/mL and 138 ng/mL
- concentration in rest of brain ([1]; LC-MS/MS, one value per mouse): 16.2 ng/mL and 122 ng/mL and 9.97 ng/mL and 9.75 ng/mL and 10.8 ng/mL and 1.12 ng/mL and 16.0 ng/mL and 7.09 ng/mL
- remaining binding at 10 µM (NEK6): 91%
- remaining binding at 10 µM (PIK3C2G): 99%
- remaining binding at 10 µM (FER): 100%
- remaining binding at 10 µM (PIK3CA): 100%
- remaining binding at 10 µM (PRKX): 100%
- remaining binding at 10 µM (PRKD1): 100%
- remaining binding at 10 µM (TLK1): 96%
- remaining binding at 10 µM (PFTK1): 96%
- remaining binding at 10 µM (SLK): 63%
- remaining binding at 10 µM (MLCK): 94%
- remaining binding at 10 µM (TRPM6): 53%
- remaining binding at 10 µM (MAP4K2): 100%
- remaining binding at 10 µM (AURKC): 100%
- remaining binding at 10 µM (EPHA2): 98%
- remaining binding at 10 µM (EGFR (L858R, T790M)): 51%
- remaining binding at 10 µM (RAF1): 100%
- remaining binding at 10 µM (PKMYT1): 100%
- remaining binding at 10 µM (MRCKB): 100%
- remaining binding at 10 µM (PIM2): 98%
- remaining binding at 10 µM (EGFR (S752-I759del)): 84%
- remaining binding at 10 µM (KIT (D816H)): 86%
- remaining binding at 10 µM (RIPK1): 100%
- remaining binding at 10 µM (RIOK1): 100%
- remaining binding at 10 µM (KIT (V559D, T670I)): 98%
- remaining binding at 10 µM (ANKK1): 71%
- remaining binding at 10 µM (YANK1): 66%
- remaining binding at 10 µM (ROCK1): 96%

SMILES: CNc1c(C(N)=O)c2ccccn2c1C(=O)c1ccc(F)cc1 [Compound A, 2-methyl-amino-3-[(4-fluorophenyl)carbonyl]indolizine-1-carboxamide]
- remaining binding at 10 µM (BMPR1A): 100%
- remaining binding at 10 µM (PFTAIRE2): 100%
- remaining binding at 10 µM (ACVR2B): 100%
- concentration in cortex ([1]; LC-MS/MS, one value per mouse): BLQ (2×) and 12.6 ng/mL and 9.67 ng/mL and 14.9 ng/mL and 8.92 ng/mL and 2.51 ng/mL and 17.7 ng/mL
- concentration in hippocampus [1, 2]: BLQ (3×) and 8.23 ng/mL and 12.8 ng/mL and 9.33 ng/mL and 10.3 ng/mL
- concentration in plasma ([1]; LC-MS/MS, one value per mouse): 12.6 ng/mL and 207 ng/mL and 203 ng/mL and 274 ng/mL and 188 ng/mL and 16.9 ng/mL and 319 ng/mL and 25.6 ng/mL
- concentration in rest of brain ([1]; LC-MS/MS, one value per mouse): BLQ (2×) and 12.7 ng/mL and 10.5 ng/mL and 14.1 ng/mL and 12.9 ng/mL and 19.0 ng/mL and 2.66 ng/mL
- concentration at 8 weeks ([1]; brain, SEM 1.05, read-out: concentration in the brain (Mean ±SEM)): ~11.1 ng/mL
- concentration at 8 weeks ([1]; hippocampus, hippocampus at sacrifice, LC-MS/MS, one value per mouse, read-out: concentration in hippocampus): 10.5 ng/mL
- remaining binding at 10 µM (NEK6): 76%
- remaining binding at 10 µM (PIK3C2G): 100%
- remaining binding at 10 µM (FER): 98%
- remaining binding at 10 µM (PIK3CA): 89%
- remaining binding at 10 µM (PRKX): 100%
- remaining binding at 10 µM (PRKD1): 100%
- remaining binding at 10 µM (TLK1): 87%
- remaining binding at 10 µM (PFTK1): 77%
- remaining binding at 10 µM (SLK): 100%
- remaining binding at 10 µM (MLCK): 53%
- remaining binding at 10 µM (TRPM6): 69%
- remaining binding at 10 µM (MAP4K2): 100%
- remaining binding at 10 µM (AURKC): 100%
- remaining binding at 10 µM (EPHA2): 70%
- remaining binding at 10 µM (EGFR (L858R, T790M)): 88%
- remaining binding at 10 µM (RAF1): 95%
- remaining binding at 10 µM (PKMYT1): 52%
- remaining binding at 10 µM (MRCKB): 100%
- remaining binding at 10 µM (PIM2): 65%
- remaining binding at 10 µM (EGFR (S752-I759del)): 18%
- remaining binding at 10 µM (KIT (D816H)): 86%
- remaining binding at 10 µM (RIPK1): 99%
- remaining binding at 10 µM (RIOK1): 100%
- remaining binding at 10 µM (KIT (V559D, T670I)): 99%
- remaining binding at 10 µM (ANKK1): 68%
- remaining binding at 10 µM (YANK1): 81%
- remaining binding at 10 µM (ROCK1): 100%
